Test results reported in article PMC11584562 (The Journal of Biological Chemistry, 2024).

Legend:
CnKbc1 [1] = target: T1, CnKbc1 (Cryptococcus neoformans, UniProt J9VT24); experiment: biochemical
T1 sequence (J9VT24 1-696): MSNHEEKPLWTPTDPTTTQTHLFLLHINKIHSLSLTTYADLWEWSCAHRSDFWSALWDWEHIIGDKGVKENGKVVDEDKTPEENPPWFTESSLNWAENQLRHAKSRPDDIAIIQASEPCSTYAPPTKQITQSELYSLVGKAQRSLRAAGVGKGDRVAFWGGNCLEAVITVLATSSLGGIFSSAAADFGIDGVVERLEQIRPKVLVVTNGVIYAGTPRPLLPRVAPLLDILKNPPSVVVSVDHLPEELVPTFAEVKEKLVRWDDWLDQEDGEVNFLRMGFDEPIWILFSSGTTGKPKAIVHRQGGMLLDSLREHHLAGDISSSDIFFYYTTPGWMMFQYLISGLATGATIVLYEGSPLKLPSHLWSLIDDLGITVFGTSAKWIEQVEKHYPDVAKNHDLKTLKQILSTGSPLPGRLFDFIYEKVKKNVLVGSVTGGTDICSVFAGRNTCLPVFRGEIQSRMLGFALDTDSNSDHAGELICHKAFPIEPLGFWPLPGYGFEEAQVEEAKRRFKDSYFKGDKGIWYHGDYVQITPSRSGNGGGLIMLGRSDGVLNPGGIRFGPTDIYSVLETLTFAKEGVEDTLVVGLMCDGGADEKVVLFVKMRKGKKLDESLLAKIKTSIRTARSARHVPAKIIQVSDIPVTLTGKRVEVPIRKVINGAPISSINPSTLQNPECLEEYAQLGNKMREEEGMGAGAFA

CnAcs1 [2] = target: T2, CnAcs1 (Cryptococcus neoformans, UniProt J9VFT1); experiment: biochemical
T2 sequence (J9VFT1 1-680): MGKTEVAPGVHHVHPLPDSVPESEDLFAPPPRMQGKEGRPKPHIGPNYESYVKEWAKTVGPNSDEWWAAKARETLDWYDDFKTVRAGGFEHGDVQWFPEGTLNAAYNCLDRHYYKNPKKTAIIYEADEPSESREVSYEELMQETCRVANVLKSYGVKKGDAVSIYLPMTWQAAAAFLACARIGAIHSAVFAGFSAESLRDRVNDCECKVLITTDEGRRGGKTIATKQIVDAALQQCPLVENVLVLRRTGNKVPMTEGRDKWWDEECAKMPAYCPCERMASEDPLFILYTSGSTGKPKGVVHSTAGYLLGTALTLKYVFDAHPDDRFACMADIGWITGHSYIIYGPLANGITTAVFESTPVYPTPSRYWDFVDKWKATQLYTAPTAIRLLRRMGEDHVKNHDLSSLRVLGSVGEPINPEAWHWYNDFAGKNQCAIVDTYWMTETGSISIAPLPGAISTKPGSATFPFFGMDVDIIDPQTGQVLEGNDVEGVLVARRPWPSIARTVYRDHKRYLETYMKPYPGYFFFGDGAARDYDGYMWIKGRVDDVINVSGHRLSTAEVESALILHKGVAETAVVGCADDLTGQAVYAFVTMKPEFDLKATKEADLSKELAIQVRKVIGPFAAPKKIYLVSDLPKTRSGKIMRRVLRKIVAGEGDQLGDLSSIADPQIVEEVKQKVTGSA

LiAcs1 [3] = target: T3, LiAcs1 (Leishmania infantum, UniProt A4I093); experiment: EnzChek pyrophosphate-release coupled assay; assay type: biochemical
T3 sequence (A4I093 1-705): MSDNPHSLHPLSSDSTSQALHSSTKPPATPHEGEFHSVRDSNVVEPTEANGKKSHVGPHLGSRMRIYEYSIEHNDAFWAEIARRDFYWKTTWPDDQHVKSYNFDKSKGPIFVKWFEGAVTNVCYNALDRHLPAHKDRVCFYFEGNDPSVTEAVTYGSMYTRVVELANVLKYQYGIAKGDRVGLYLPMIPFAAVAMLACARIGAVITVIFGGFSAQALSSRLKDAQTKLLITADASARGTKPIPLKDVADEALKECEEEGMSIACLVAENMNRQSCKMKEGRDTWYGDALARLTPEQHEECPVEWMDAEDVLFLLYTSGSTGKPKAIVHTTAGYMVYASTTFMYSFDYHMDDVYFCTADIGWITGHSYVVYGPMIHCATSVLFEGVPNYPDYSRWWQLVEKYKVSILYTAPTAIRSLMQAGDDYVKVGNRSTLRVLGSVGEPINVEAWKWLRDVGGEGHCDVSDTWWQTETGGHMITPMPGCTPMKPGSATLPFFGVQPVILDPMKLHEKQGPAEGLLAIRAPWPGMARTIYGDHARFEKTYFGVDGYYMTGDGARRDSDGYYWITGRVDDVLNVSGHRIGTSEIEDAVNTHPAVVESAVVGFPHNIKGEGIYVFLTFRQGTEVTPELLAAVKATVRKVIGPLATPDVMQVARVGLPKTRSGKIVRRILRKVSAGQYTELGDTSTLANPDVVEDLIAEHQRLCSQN

CnKbc1 [4] = target: T1, CnKbc1; experiment: EnzChek pyrophosphate-release coupled assay; assay type: biochemical
CnAcs1 [5] = target: T2, CnAcs1; experiment: EnzChek pyrophosphate-release coupled assay; assay type: biochemical
LiAcs1 [6] = target: T3, LiAcs1; experiment: biochemical
CnAcs1 [7] = target: T2, CnAcs1; experiment: biochemical; remark: listed apart in the source
LiAcs1 [8] = target: T3, LiAcs1; experiment: biochemical; remark: listed apart in the source
CnKbc1 [9] = target: T1, CnKbc1; experiment: biochemical; remark: listed apart in the source
[10] = substrate: CC(=O)CC(=O)O; experiment: EnzChek pyrophosphate-release coupled assay; assay type: biochemical, Leishmania infantum; conditions: ATP and CoA as co-substrates, 4 mM MgCl2, 37 °C
[11] = substrate: CC(=O)O; experiment: EnzChek pyrophosphate-release coupled assay; assay type: biochemical, Leishmania infantum; conditions: ATP and CoA as co-substrates, 4 mM MgCl2, 37 °C

Row | Molecule | IC50 (CnKbc1 [1]) [µM] | IC50 (LiAcs1 [3]) [µM] | IC50 (CnAcs1 [5]) [µM] | also measured
1 | COP(=O)(O)OC[C@H]1O[C@@H](n2cnc3c(N)ncnc32)[C@H](O)[C@@H]1O [i, Methyl-AMP] | > 100 | 69.9 | – | IC50 (CnAcs1 [2]): > 100 µM
2 | CCOP(=O)(O)OC[C@H]1O[C@@H](n2cnc3c(N)ncnc32)[C@H](O)[C@@H]1O [ii, Ethyl-AMP] | – | 2 | 8 | IC50 (CnKbc1 [4]): > 100 µM
3 | Nc1ncnc2c1ncn2[C@@H]1O[C@H](COP(=O)(O)OC2CC2)[C@@H](O)[C@H]1O [iii, Cyclopropyl-AMP] | > 100 | 2.2 | 8.7 | –
4 | CCCOP(=O)(O)OC[C@H]1O[C@@H](n2cnc3c(N)ncnc32)[C@H](O)[C@@H]1O [iv, Propyl-AMP] | > 100 | 13.5 | 21.1 | –
5 | CC(C)OP(=O)(O)OC[C@H]1O[C@@H](n2cnc3c(N)ncnc32)[C@H](O)[C@@H]1O [v, Isopropyl-AMP] | > 100 | 6.7 | 25.3 | –
6 | C=CCOP(=O)(O)OC[C@H]1O[C@@H](n2cnc3c(N)ncnc32)[C@H](O)[C@@H]1O [vi, Allyl-AMP] | > 100 | 12.5 | 41 | –
7 | C#CCOP(=O)(O)OC[C@H]1O[C@@H](n2cnc3c(N)ncnc32)[C@H](O)[C@@H]1O [vii, Propargyl-AMP] | > 100 | 10.2 | 55.1 | –
8 | CCCCOP(=O)(O)OC[C@H]1O[C@@H](n2cnc3c(N)ncnc32)[C@H](O)[C@@H]1O [viii, Butyl-AMP] | – | – | – | IC50 (CnKbc1 [4]): 7.8 µM; IC50 (CnAcs1 [2]): > 100 µM; IC50 (LiAcs1 [6]): > 100 µM
9 | Nc1ncnc2c1ncn2[C@@H]1O[C@H](COP(=O)(O)OC2CCCC2)[C@@H](O)[C@H]1O [x, Cyclopentyl-AMP] | – | – | – | IC50 (CnAcs1 [7]): > 100 µM; IC50 (LiAcs1 [8]): > 100 µM; IC50 (CnKbc1 [9]): > 100 µM
10 | LiAcs1 (Leishmania infantum) (protein) MSDNPHSLHPLSSDSTSQALHSSTKPPATPHEGEFHSVRDSNVVEPTEANGKKSHVGPHLGSRMRIYEYSIEHNDAFWAEIARRDFYWKTTWPDDQHVKSYNFDKSKGPIFVKWFEGAVTNVCYNALDRHLPAHKDRVCFYFEGNDPSVTEAVTYGSMYTRVVELANVLKYQYGIAKGDRVGLYLPMIPFAAVAMLACARIGAVITVIFGGFSAQALSSRLKDAQTKLLITADASARGTKPIPLKDVADEALKECEEEGMSIACLVAENMNRQSCKMKEGRDTWYGDALARLTPEQHEECPVEWMDAEDVLFLLYTSGSTGKPKAIVHTTAGYMVYASTTFMYSFDYHMDDVYFCTADIGWITGHSYVVYGPMIHCATSVLFEGVPNYPDYSRWWQLVEKYKVSILYTAPTAIRSLMQAGDDYVKVGNRSTLRVLGSVGEPINVEAWKWLRDVGGEGHCDVSDTWWQTETGGHMITPMPGCTPMKPGSATLPFFGVQPVILDPMKLHEKQGPAEGLLAIRAPWPGMARTIYGDHARFEKTYFGVDGYYMTGDGARRDSDGYYWITGRVDDVLNVSGHRIGTSEIEDAVNTHPAVVESAVVGFPHNIKGEGIYVFLTFRQGTEVTPELLAAVKATVRKVIGPLATPDVMQVARVGLPKTRSGKIVRRILRKVSAGQYTELGDTSTLANPDVVEDLIAEHQRLCSQN | – | – | – | Km [10]: 88 (95% CI 71, 110) μM; Km [11]: 61 (95% CI 45, 83) μM
